Test systems include LOX IMVI; RPMI-8226; SN12C; SF-539; PC-3; SF-268; Hs-578T; ACHN; SK-MEL-2; HL-60; MDA-MB-231; BT-549; NCI/ADR-RES; K562; HOP-92; CAKI-1; SNB-19; SK-MEL-5; Malme-3M; SW-620.
Common to all, as to test: inhibition of tumour cell growth, NCI panel, 48 h

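Following 48 hours of exposure in 96-well plates, responses at five concentrations were used to interpolate endpoints linearly. The concentration for 50% growth inhibition is given as GI50.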 The source made the active and inactive calls. No stated cut-off is given here; in the data, active = GI50 up to about 1.1 µM and inactive = higher. Bounds are passed on as bounds.

As to `c1ccc(-c2nnc(SCc3c[nH]c4ccccc34)n2-c2ccccc2)cc1`, the GI50 with LOX IMVI is 34.9 µM (inactive); in the assay on RPMI-8226 it was > 100 µM (inactive); with SN12C it was 68.4 µM (inactive); with SF-539 it was 18.9 µM (inactive); with PC-3 it was 21.4 µM (inactive); with SF-268, 38.2 µM (inactive). The GI50 in the assay with Hs-578T was 17.4 µM (inactive); in the assay with ACHN, 26.6 µM (inactive); in the assay with SK-MEL-2, 29.2 µM (inactive); with HL-60, > 100 µM (inactive); with MDA-MB-231 it was 29.4 µM (inactive); in the assay on BT-549, 17.3 µM (inactive). The GI50 was 22.6 µM (inactive) with NCI/ADR-RES; 47.5 µM (inactive) with K562; 3.55 µM (inactive) with HOP-92; 33.1 µM (inactive) in the assay with CAKI-1; 42.1 µM (inactive) in the assay with SNB-19; 15 µM (inactive) in the assay with SK-MEL-5. Also, the values for the GI50 in the assay with Malme-3M and in the assay with SW-620 were > 100 µM (inactive) and 85.1 µM (inactive), respectively.

In the case of `CC1OC(OC2C(O[C@H]3CC[C@@]4(C)C(=CC[C@H]5[C@@H]6C[C@@H]7O[C@]8(CC[C@@H](C)CO8)[C@@H](C)[C@@H]7[C@@]6(C)CC[C@@H]54)C3)OC(CO)C(O)C2OC2OC(CO)C(O)C(O)C2O)C(O)C(O)C1O` (stereo not given in full), the GI50 is 2.38 µM (inactive) in the assay on LOX IMVI; 2.54 µM (inactive) in the assay with RPMI-8226; 8.75 µM (inactive) in the assay with SN12C; 2.15 µM (inactive) with SF-539; 1.87 µM (inactive) in the assay on PC-3; 1.9 µM (inactive) in the assay with SF-268. Moreover, the GI50 was 1.73 µM (inactive) in the assay on Hs-578T; 1.8 µM (inactive) in the assay on ACHN; 1.72 µM (inactive) in the assay with SK-MEL-2; 3.35 µM (inactive) in the assay on HL-60; 1.47 µM (inactive) with MDA-MB-231; 2.07 µM (inactive) in the assay with BT-549. For the same compound, the GI50 in the assay with NCI/ADR-RES is 2.24 µM (inactive); in the assay on K562 it was 14.4 µM (inactive); in the assay with HOP-92 it was 1.79 µM (inactive); with CAKI-1, 3.5 µM (inactive); in the assay with SNB-19, 1.87 µM (inactive); in the assay on SK-MEL-5, 2.04 µM (inactive). Moreover, the GI50 is 1.69 µM (inactive) with Malme-3M and 0.205 µM (active) in the assay on SW-620.

For the compound `Nc1nc(Cl)cc(NCC2(CO)CCC(O)C2)n1` (stereo not given), the GI50 with LOX IMVI, with RPMI-8226, in the assay on SN12C, in the assay on SF-539, in the assay on PC-3 and with SF-268 was > 100 µM (inactive) in each case. Moreover, the GI50 in the assay with Hs-578T, in the assay on ACHN, in the assay on SK-MEL-2, with HL-60, with MDA-MB-231 and with BT-549 was > 100 µM (inactive) in each case. Besides, the GI50 in the assay with NCI/ADR-RES, with K562, in the assay on HOP-92, in the assay on CAKI-1, in the assay with SNB-19 and with SK-MEL-5 was > 100 µM (inactive) throughout. The GI50 with Malme-3M and with SW-620 was > 100 µM (inactive) each time.

As to `O=C(Nc1sccc1S(=O)(=O)c1ccc(Cl)cc1)c1ccc(F)cc1F`, the GI50 in the assay on LOX IMVI is > 100 µM (inactive); in the assay on RPMI-8226, 62.8 µM (inactive); in the assay with SN12C it was 56.8 µM (inactive); in the assay with SF-539 it was 14.3 µM (inactive); with PC-3, 27.2 µM (inactive); in the assay on SF-268, 19.7 µM (inactive). In addition, the GI50 with Hs-578T is 26.2 µM (inactive); with ACHN, 32.1 µM (inactive); in the assay on SK-MEL-2, 18.9 µM (inactive); with HL-60, > 100 µM (inactive); in the assay on MDA-MB-231, 20.7 µM (inactive); with BT-549 it was 20.8 µM (inactive). Also, the GI50 in the assay with NCI/ADR-RES was 32.3 µM (inactive); in the assay with K562, 18 µM (inactive); with HOP-92, 19.5 µM (inactive); in the assay on CAKI-1 it was 26.2 µM (inactive); in the assay on SNB-19 it was 21.9 µM (inactive); in the assay on SK-MEL-5, 49.4 µM (inactive). In addition, the GI50 in the assay with Malme-3M is 31.9 µM (inactive); with SW-620, 73.1 µM (inactive).

On to `CCN1CCC(O)(c2ccc(Oc3ccc(Cl)cc3)cc2)C(C(=O)c2ccc(Oc3ccc(Cl)cc3)cc2)C1` (stereo not given), for which the GI50 with LOX IMVI was 3.78 µM (inactive); in the assay on RPMI-8226, 3.37 µM (inactive); in the assay with SN12C, 13.7 µM (inactive); with SF-539 it was 15.3 µM (inactive); in the assay on PC-3, 9.57 µM (inactive); in the assay with SF-268, 17.8 µM (inactive). Further, the GI50 was 20.7 µM (inactive) in the assay on Hs-578T; 14 µM (inactive) with ACHN; 21.9 µM (inactive) in the assay on SK-MEL-2; 1.8 µM (inactive) in the assay on HL-60; 14.7 µM (inactive) with MDA-MB-231; 14.5 µM (inactive) in the assay on BT-549. For the same compound, the GI50 with NCI/ADR-RES is 17.3 µM (inactive); in the assay with K562, 5.28 µM (inactive); with HOP-92, 7.16 µM (inactive); with CAKI-1 it was 14.3 µM (inactive); in the assay on SNB-19 it was 14.5 µM (inactive); in the assay with SK-MEL-5, 12.2 µM (inactive). Besides, the GI50 is 17.2 µM (inactive) in the assay with Malme-3M and 12.8 µM (inactive) with SW-620.

In the case of `O=[N+]([O-])C(=C1NCCN1)/C(Cl)=C(\Cl)Br`, the GI50 in the assay with LOX IMVI was 15.7 µM (inactive); in the assay on RPMI-8226, 22.4 µM (inactive); with SN12C, 41.2 µM (inactive); with SF-539 it was > 63 µM (inactive); in the assay with PC-3, > 59.4 µM (inactive); with SF-268 it was 35.2 µM (inactive). Further, the GI50 in the assay with Hs-578T is > 100 µM (inactive); in the assay with ACHN it was 38.2 µM (inactive); in the assay on SK-MEL-2, 45.6 µM (inactive); in the assay with HL-60, 10.6 µM (inactive); in the assay with MDA-MB-231 it was > 60.3 µM (inactive); with BT-549 it was 36.1 µM (inactive). For the same compound, the GI50 with NCI/ADR-RES was > 63.1 µM (inactive); in the assay with K562 it was 5.33 µM (inactive); in the assay on HOP-92, 34.4 µM (inactive); in the assay on CAKI-1, 16.3 µM (inactive); in the assay with SNB-19, > 100 µM (inactive); in the assay on SK-MEL-5, 51.9 µM (inactive). The GI50 in the assay on Malme-3M was 36.9 µM (inactive); in the assay on SW-620, 13.5 µM (inactive).

For the compound `COc1cc(Cn2c(=S)ss/c2=N\C(=S)N(C)C)cc(OC)c1OC`, the GI50 with LOX IMVI is 4.69 µM (inactive); with RPMI-8226, 6.7 µM (inactive); in the assay with SN12C, > 50.2 µM (inactive); in the assay with SF-539, 6.35 µM (inactive); in the assay with PC-3, 3.35 µM (inactive); in the assay on SF-268, 8.93 µM (inactive). Also, the GI50 was 2.7 µM (inactive) in the assay with Hs-578T; 7.06 µM (inactive) in the assay with ACHN; 4.46 µM (inactive) in the assay with SK-MEL-2; 2.05 µM (inactive) in the assay on HL-60; 15.1 µM (inactive) in the assay with MDA-MB-231; > 20.7 µM (inactive) in the assay with BT-549. The GI50 with NCI/ADR-RES was 1.61 µM (inactive); in the assay with K562 it was 2.59 µM (inactive); in the assay on HOP-92, 17.9 µM (inactive); in the assay on CAKI-1, 4.57 µM (inactive); in the assay on SNB-19, 46.1 µM (inactive); with SK-MEL-5, 2.26 µM (inactive). The GI50 with Malme-3M is 3.21 µM (inactive); in the assay on SW-620 it was 2.81 µM (inactive).
